In publication PMC3210473 (Biotechnology and bioengineering, 2011):

Legend:
[1] = target: T1, sensor 6 (ERα 312-595) (Homo sapiens, UniProt P03372); assay: split mVenus complementation, flow cytometry; format: cell-based; conditions: transfected HeLa cells, up to […] ligand, […] h
T1 sequence (P03372 312-595): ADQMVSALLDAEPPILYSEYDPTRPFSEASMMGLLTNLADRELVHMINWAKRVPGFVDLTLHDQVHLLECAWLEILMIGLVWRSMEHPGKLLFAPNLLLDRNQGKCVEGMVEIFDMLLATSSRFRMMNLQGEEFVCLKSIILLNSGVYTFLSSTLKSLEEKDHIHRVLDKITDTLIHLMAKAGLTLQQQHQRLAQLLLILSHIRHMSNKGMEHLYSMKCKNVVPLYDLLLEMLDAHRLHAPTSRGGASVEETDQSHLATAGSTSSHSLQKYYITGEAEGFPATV

[2] = target: T1, sensor 6 (ERα 312-595); assay: split mVenus complementation, flow cytometry; format: cell-based

SMILES	split mVenus complementation, flow cytometry [1]	EC50 [2] [nM]
O=c1c(-c2ccc(O)cc2)coc2cc(O)ccc12 [daidzein]	both of which caused an increase in fluorescence at micromolar concentrations	–
C[C@]12CC[C@@H]3c4ccc(O)c(O)c4CC[C@H]3[C@@H]1CC[C@@H]2O [4-Hydroxyestradiol]	–	58 ± 4.7
C/C=C(/C(=C/C)c1ccc(O)cc1)c1ccc(O)cc1 [Dienestrol]	–	4.4 ± 0.87
Clc1ccc(C(c2ccccc2Cl)C(Cl)(Cl)Cl)cc1 (centres unmarked) [o,p’-DDT]	The pesticide o,p’-DDT, and a PCB compound also displayed activation beginning at micromolar levels	–
C[C@]12CC[C@@H]3c4cc(O)c(O)cc4CC[C@H]3[C@@H]1CC[C@@H]2O [2-Hydroxyestradiol]	–	550 ± 100
